Experimental data as given in the NIST ThermoML archive (doi:10.1021/je060355j).
Numbers after ± are expanded uncertainties.

Experiments:
[1] = Liquid; for mass density: 101.32 kPa
[2] = refractive index (Na D-line) (dimensionless); details: 101.33 kPa, Liquid
[3] = xn = mol fraction of the nth substance listed; details: 101.32 kPa, Liquid
[4] = excess molar enthalpy (molar enthalpy of mixing); xn = mol fraction of the nth substance listed; details: 291.15 K, 101.32 kPa, Liquid

CCCCOC=O [butyl methanoate]
Details | mass density, 291.15 K [kg/m3] | mass density, 298.15 K [kg/m3] | mass density, 308.15 K [kg/m3] | mass density, 318.15 K [kg/m3] | refractive index, 291.15 K | refractive index, 298.15 K | refractive index, 318.15 K | vapor or sublimation pressure, 380.13 K [kPa]
[1] | 896 ± 2.4 | 888.66 ± 2.4 | 878.24 ± 2.4 | 867.21 ± 2.4 | – | – | – | 101.32 ± 1.1
[2] | – | – | – | – | 1.3904 ± 0.0011 | 1.3872 ± 0.0011 | 1.3776 ± 0.0011 | –

CCOC=O [ethyl methanoate]
Details | mass density, 291.15 K [kg/m3] | mass density, 298.15 K [kg/m3] | mass density, 308.15 K [kg/m3] | mass density, 318.15 K [kg/m3] | refractive index, 291.15 K | refractive index, 298.15 K | refractive index, 318.15 K | vapor or sublimation pressure, 327.33 K [kPa]
[1] | 924.7 ± 2.3 | 915.16 ± 2.3 | 902.07 ± 2.3 | 888.42 ± 2.4 | – | – | – | 101.32 ± 1
[2] | – | – | – | – | 1.3614 ± 0.0011 | 1.358 ± 0.0011 | 1.3474 ± 0.0011 | –

CCCCCC [hexane] + CCCCOC=O
[3], x2 = 0
Details | mass density [kg/m3]
291.15 K | 661.2 ± 2
298.15 K | 654.89 ± 2.1
308.15 K | 646.07 ± 2.1
318.15 K | 636.43 ± 2.2

COC=O [methyl methanoate] + CCCCCC
[4]
Details | excess molar enthalpy [kcal/mol]
x1 = 0.1408 | 0.253 ± 0.00454
x1 = 0.252 | 0.389 ± 0.00645
x1 = 0.3379 | 0.462 ± 0.00765
x1 = 0.4008 | 0.492 ± 0.00813
x1 = 0.4618 | 0.504 ± 0.00813
x1 = 0.5094 | 0.502 ± 0.00813
x1 = 0.5501 | 0.493 ± 0.00813
x1 = 0.5862 | 0.481 ± 0.00789
x1 = 0.6157 | 0.462 ± 0.00765
x1 = 0.6568 | 0.439 ± 0.00717
x1 = 0.7033 | 0.41 ± 0.00669
x1 = 0.7517 | 0.37 ± 0.00621
x1 = 0.7971 | 0.33 ± 0.0055
x1 = 0.845 | 0.281 ± 0.00478
x1 = 0.8923 | 0.219 ± 0.00406
x1 = 0.9292 | 0.153 ± 0.00335
x1 = 0.9665 | 0.0896 ± 0.00239

mass density [kg/m3], [3]
Details | 291.15 K | 298.15 K
x1 = 0.019 | 663 ± 2 | –
x1 = 0.0376 | – | 659.63 ± 2.1
x1 = 0.0499 | 666.3 ± 2 | –
x1 = 0.0816 | – | 664.26 ± 2
x1 = 0.0863 | 670.6 ± 2 | –
x1 = 0.1013 | 672.6 ± 2 | –
x1 = 0.1209 | 675.3 ± 2 | –
x1 = 0.1327 | – | 670.55 ± 2
x1 = 0.1642 | – | 674.8 ± 2
x1 = 0.2033 | 687.1 ± 1.9 | –
x1 = 0.2352 | – | 685.32 ± 1.9
x1 = 0.2936 | – | 695.29 ± 1.9
x1 = 0.2986 | 702.6 ± 1.9 | –
x1 = 0.3828 | 718.9 ± 1.8 | –
x1 = 0.3903 | – | 714.41 ± 1.8
x1 = 0.4841 | 742.3 ± 1.7 | –
x1 = 0.4987 | – | 740.05 ± 1.7
x1 = 0.5462 | 759.1 ± 1.6 | –
x1 = 0.5979 | – | 768.9 ± 1.6
x1 = 0.6061 | 777.4 ± 1.6 | –
x1 = 0.6987 | 810.1 ± 1.4 | –
x1 = 0.7062 | – | 806.5 ± 1.4
x1 = 0.7433 | – | 821.74 ± 1.4
x1 = 0.7445 | 829.1 ± 1.4 | –
x1 = 0.7956 | 851.5 ± 1.3 | –
x1 = 0.7972 | – | 845.31 ± 1.3
x1 = 0.8392 | 872.6 ± 1.2 | –
x1 = 0.8497 | – | 871.94 ± 1.2
x1 = 0.903 | 908.4 ± 1.1 | –
x1 = 0.905 | – | 902.05 ± 1.2
x1 = 0.9539 | 939.9 ± 1.1 | –
x1 = 0.9582 | – | 936.28 ± 1.1
x1 = 1 | 976.9 ± 0.67 | 966.54 ± 0.72

CCCOC=O [propyl methanoate]
Details | mass density, 291.15 K [kg/m3] | mass density, 298.15 K [kg/m3] | mass density, 308.15 K [kg/m3] | mass density, 318.15 K [kg/m3] | refractive index, 291.15 K | refractive index, 298.15 K | refractive index, 318.15 K | vapor or sublimation pressure, 353.92 K [kPa]
[1] | 907.8 ± 2.3 | 899.08 ± 2.3 | 888.36 ± 2.4 | 875.32 ± 2.4 | – | – | – | 101.32 ± 1
[2] | – | – | – | – | 1.3778 ± 0.0011 | 1.375 ± 0.0011 | 1.365 ± 0.0011 | –

CCCCCC [hexane] + COC=O
[3], x2 = 0
Details | mass density [kg/m3]
291.15 K | 661.2 ± 2
298.15 K | 654.89 ± 2.1

CCCCCC [hexane]
Details | mass density, 291.15 K [kg/m3] | mass density, 298.15 K [kg/m3] | mass density, 308.15 K [kg/m3] | mass density, 318.15 K [kg/m3] | refractive index, 291.15 K | refractive index, 298.15 K | refractive index, 318.15 K | vapor or sublimation pressure, 341.76 K [kPa]
[1] | 661.2 ± 2 | 654.89 ± 2.1 | 646.07 ± 2.1 | 636.43 ± 2.2 | – | – | – | 101.32 ± 1
[2] | – | – | – | – | 1.3765 ± 0.001 | 1.372 ± 0.001 | 1.3618 ± 0.001 | –

CCCCCC [hexane] + CCCOC=O
[3], x2 = 0
Details | mass density [kg/m3]
291.15 K | 661.2 ± 2
298.15 K | 654.89 ± 2.1
308.15 K | 646.07 ± 2.1
318.15 K | 636.43 ± 2.2

COC=O [methyl methanoate]
Details | mass density, 291.15 K [kg/m3] | mass density, 298.15 K [kg/m3] | refractive index, 291.15 K | refractive index, 298.15 K | vapor or sublimation pressure, 304.7 K [kPa]
[1] | 976.9 ± 0.67 | 966.54 ± 0.72 | – | – | 101.32 ± 1
[2] | – | – | 1.3452 ± 0.001 | 1.3415 ± 0.001 | –

CCCCCC [hexane] + CCOC=O
[3], x2 = 0
Details | mass density [kg/m3]
291.15 K | 661.2 ± 2
298.15 K | 654.89 ± 2.1
308.15 K | 646.07 ± 2.1
318.15 K | 636.43 ± 2.2
